# Reference: patent US20090061470A1, “Use of Human Hepatocytes for Determining Liver Function and Liver Regeneration” (priority 2006, published 2009)
# What was measured:
# [1] = system: cytochrome P450 1A2; conditions: Hep G2/C3A-cells; cited from earlier work
# [2] = system: Hep G2/C3A-cells; conditions: 0.03 mM added to the medium; experimental stage
# Procedure: Synthesis Capacity, for Example Micro-Albumin and Other Protein Synthesis of the Hep G2/C3A Cells (13).
# The HepG2/C3A-cells are seeded in 24 well cell culture plates in a concentration of 250,000 cells/well for three days and 0.5 ml plasma from test persons+0.25 ml medium is added. The cells are then rinsed once with medium and after that are incubated with fresh medium (1 ml) for three days. After that micro albumin is determined nephelometrically from 0.2 ml cell culture medium and duplicated (+medium control). Each test batch with plasma from test persons is also duplicated.
# Consequently the test period can also be shortened to 48 hours and the cells release measurable quantities of fibrinogen and transferrine (plasma proteins) that can be measured and duplicated in 200 μl cell culture medium.
SMILES,"activity of cytochrome P450 1A2 after induction, relative to the initial value [1]",synthesis capacity of the Hep G2/C3A-cells [2]
"Cc1ccc2cc3c(ccc4ccccc43)c3c2c1CC3 [methylcholanthrene, 3-methylcholanthren]",40 times the initial value,
NCCC[C@H](N)C(=O)O.O=C(O)CCC(=O)C(=O)O [ornithine alpha-cetoglutarates],,increased
